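1) Cells in 96-well plates. 2) Compound, 48 h, 5 concentrations. 3) Linear interpolation between surrounding doses. 4) Unreached endpoint = highest concentration. The concentration for 50% growth inhibition is given as GI50.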 The source made the active and inactive calls. No stated cut-off is given here; in the data, active = GI50 up to about 1.1 µM and inactive = higher. Bounds are passed on as bounds.

The source of these data is ChEMBL document CHEMBL1201862, “PubChem BioAssay data set” (2004).

Among the test systems are UACC-62; HOP-62; SK-OV-3; SF-268; SK-MEL-28; SK-MEL-2; SN12C; UO-31; OVCAR-5; NCI-H460; A549; NCI-H522; MOLT-4; A498; HOP-92; HCT-15.
Test in all cases: growth of human tumour cells (NCI), 48 h

For the compound `CCCCCCCCCCCCCCCCCCOCC1(COP(=O)([O-])OCC[N+](C)(C)C)CCCO1` (stereo unspecified), the GI50 is 8.75 µM (inactive) in the assay on UACC-62; 2.99 µM (inactive) in the assay with HOP-62; 14.4 µM (inactive) in the assay with SK-OV-3; 5.87 µM (inactive) in the assay with SF-268; 18.2 µM (inactive) in the assay on SK-MEL-28; 10.9 µM (inactive) with SK-MEL-2. Also, the GI50 was 2.2 µM (inactive) in the assay with SN12C; 10.2 µM (inactive) in the assay on UO-31; 12.4 µM (inactive) with OVCAR-5; 1.57 µM (inactive) in the assay on NCI-H460; 7.6 µM (inactive) in the assay with A549; 1.96 µM (inactive) in the assay with NCI-H522. In addition, the GI50 in the assay with MOLT-4 is 2.2 µM (inactive); in the assay with A498 it was 3.46 µM (inactive); with HOP-92 it was 3.27 µM (inactive).

Regarding `CCN(CC)c1c(C(=O)/C=C/c2ccccc2)c(-c2ccccc2)nn(C)c1=O`, the GI50 in the assay on UACC-62 was 5.41 µM (inactive); with HOP-62 it was > 100 µM (inactive); with SK-OV-3 it was > 100 µM (inactive); in the assay with SF-268, 5.98 µM (inactive); in the assay with SK-MEL-28, 7.14 µM (inactive); in the assay with SN12C, 4.68 µM (inactive). In addition, the GI50 with UO-31 is > 100 µM (inactive); with OVCAR-5, 6.53 µM (inactive); in the assay on NCI-H460, 3.83 µM (inactive); in the assay with A549, 5.37 µM (inactive); in the assay with NCI-H522, 6 µM (inactive); with MOLT-4, 1.66 µM (inactive). The GI50 in the assay with A498 is 5.43 µM (inactive); in the assay on HOP-92, 45.1 µM (inactive).

In the case of `Cc1cc2c(=O)cc(-c3ccc(C(=O)O)cc3)oc2c(C(=O)O)c1C`, the GI50 with UACC-62, with HOP-62, with SK-OV-3, in the assay on SK-MEL-28, with SK-MEL-2 and in the assay on SN12C was > 100 µM (inactive) throughout. The GI50 with UO-31, in the assay on OVCAR-5, in the assay with NCI-H460, with A549, in the assay with NCI-H522 and in the assay on MOLT-4 was > 100 µM (inactive) in each case. For the same compound, the GI50 in the assay on HCT-15 is over 100 µM; in the assay on HOP-92, > 100 µM (inactive).

For `CCC1OCCN1C(C)C` (stereo unspecified), the GI50 in the assay on UACC-62 is 59 µM (inactive); in the assay with SK-OV-3, > 100 µM (inactive); in the assay with SF-268, > 100 µM (inactive); with SK-MEL-28 it was 32.8 µM (inactive); in the assay on SK-MEL-2 it was > 100 µM (inactive); in the assay on SN12C, > 100 µM (inactive). Also, the GI50 in the assay with UO-31 is 96.6 µM (inactive); in the assay on OVCAR-5, > 100 µM (inactive); in the assay with NCI-H460, 63.1 µM (inactive); in the assay on A549 it was > 100 µM (inactive); in the assay on NCI-H522 it was 85.5 µM (inactive); in the assay on MOLT-4, > 100 µM (inactive). Besides, the GI50 with HCT-15 is 81.1 µM; in the assay with A498 it was > 100 µM (inactive).

Consider `COc1ccc(Br)c(N/N=C2\CCCNC2=O)c1`, for which the GI50 with UACC-62 is > 100 µM (inactive); in the assay on HOP-62 it was > 100 µM (inactive); in the assay with SK-OV-3, 81.3 µM (inactive); in the assay with SK-MEL-28, > 100 µM (inactive); with SK-MEL-2, > 100 µM (inactive); in the assay on SN12C, > 100 µM (inactive). The GI50 in the assay on UO-31 was 32.1 µM (inactive); in the assay with OVCAR-5, 44.6 µM (inactive); with NCI-H460 it was > 100 µM (inactive); in the assay on A549 it was > 100 µM (inactive); in the assay with NCI-H522 it was 58.5 µM (inactive); in the assay on MOLT-4, 69 µM (inactive). In addition, the figures for the GI50 with HCT-15 and in the assay with HOP-92 were over 100 µM and 48.9 µM (inactive), respectively.

On to `COC(=O)/N=C(\NC(=O)OC)Nc1ccc(Oc2ccccc2)cc1NC=O`, for which the GI50 in the assay with UACC-62 was 0.573 µM (active); in the assay on HOP-62 it was 0.912 µM (active); with SK-OV-3, 0.215 µM (active); with SF-268 it was 0.673 µM (active); in the assay on SN12C, 1.58 µM (inactive); in the assay on UO-31 it was 0.871 µM (active). Moreover, the GI50 in the assay with OVCAR-5 was > 100 µM (inactive); in the assay with A549, 0.597 µM (active); with NCI-H522, 0.253 µM (active); in the assay with MOLT-4, 0.836 µM (active); in the assay with A498, 0.294 µM (active); in the assay on HOP-92 it was 24.3 µM (inactive).

Turning to `C=C1C2CCCC1C1(S(C)(=O)=O)CCCCC21O` (stereo unspecified), the GI50 in the assay with UACC-62, with SK-OV-3, in the assay on SK-MEL-28, in the assay with SK-MEL-2, in the assay on SN12C and with UO-31 was > 100 µM (inactive) each time. Further, the GI50 was > 100 µM (inactive) in the assay with OVCAR-5; > 100 µM (inactive) with NCI-H460; > 100 µM (inactive) with A549; > 100 µM (inactive) in the assay on NCI-H522; > 100 µM (inactive) in the assay with MOLT-4; over 100 µM with HCT-15. For the same compound, the GI50 in the assay with HOP-92 was < 0.01 µM (active).

On to `COc1ccc(OC)c2c(C(=O)O)c(C(C)c3ccccc3)ccc12` (stereo unspecified), for which the GI50 in the assay with UACC-62, in the assay with HOP-62, with SK-OV-3, in the assay on SF-268, in the assay on SK-MEL-28 and in the assay with SK-MEL-2 was > 100 µM (inactive) throughout. The GI50 with SN12C, in the assay on UO-31, in the assay on OVCAR-5, in the assay with NCI-H460, in the assay on A549 and with NCI-H522 was > 100 µM (inactive) each time. Also, the GI50 is > 100 µM (inactive) in the assay with MOLT-4, over 100 µM in the assay with HCT-15 and > 100 µM (inactive) with A498.

Take `COc1ccc2oc3cccc(NCCN(C)C)c3c(=O)c2c1`: the GI50 with UACC-62 was 12.7 µM (inactive); in the assay on HOP-62 it was 15.2 µM (inactive); with SK-OV-3, 15.2 µM (inactive); with SF-268, 13.3 µM (inactive); in the assay with SK-MEL-28, 18.2 µM (inactive); with SK-MEL-2, 16.5 µM (inactive). Also, the GI50 was 11 µM (inactive) in the assay on SN12C; 8.3 µM (inactive) with UO-31; 12.3 µM (inactive) in the assay with OVCAR-5; 8.83 µM (inactive) with NCI-H460; 14.2 µM (inactive) in the assay on A549; 4.01 µM (inactive) with MOLT-4. Moreover, the GI50 in the assay on HCT-15 is 13.7 µM; with A498, 19.1 µM (inactive); with HOP-92, 13.8 µM (inactive).

With `CCN(CC)CCNc1ccc2nc(C)n3c4ccc(O)cc4c(=O)c1c23`, the GI50 in the assay on HOP-62 was 0.975 µM (active); with SK-OV-3 it was 1.14 µM (inactive); in the assay with SF-268 it was 0.481 µM (active); in the assay with SK-MEL-28 it was 2.77 µM (inactive); with SK-MEL-2, 7.24 µM (inactive); with SN12C, 0.618 µM (active). Also, the GI50 is 1.94 µM (inactive) in the assay on UO-31; 0.479 µM (active) with OVCAR-5; 0.215 µM (active) in the assay with NCI-H460; 0.179 µM (active) in the assay on A549; 0.179 µM (active) in the assay on NCI-H522; 0.0447 µM (active) in the assay with MOLT-4. Besides, the results for the GI50 in the assay with HCT-15 and with A498 were 0.64 µM and 2.69 µM (inactive), respectively.

`Cc1ccc(C(=O)NC2CCCCC2)cc1/N=N/N(C)C`: the GI50 with UACC-62 was > 100 µM (inactive); with HOP-62, > 100 µM (inactive); with SF-268, 44.9 µM (inactive); with SK-MEL-28 it was > 100 µM (inactive); in the assay on SK-MEL-2, > 100 µM (inactive); with SN12C, > 100 µM (inactive). Moreover, the GI50 in the assay with UO-31 is > 100 µM (inactive); in the assay with NCI-H460 it was > 100 µM (inactive); with A549, > 100 µM (inactive); with NCI-H522, 74 µM (inactive); with HCT-15, over 100 µM; in the assay with HOP-92 it was > 100 µM (inactive).

On to `CC(C)(C)C1=CC(=NNC(=S)NCc2ccccc2)C=C(C(C)(C)C)C1=O`, for which the GI50 in the assay with UACC-62 is > 100 µM (inactive); with HOP-62 it was > 100 µM (inactive); in the assay with SF-268, 87.3 µM (inactive); in the assay on SK-MEL-28, > 100 µM (inactive); in the assay on SK-MEL-2, > 100 µM (inactive); in the assay with SN12C, 92.5 µM (inactive). Moreover, the GI50 was 52 µM (inactive) in the assay with UO-31; 47.6 µM (inactive) with NCI-H460; 42.7 µM (inactive) in the assay on A549; 66.1 µM (inactive) in the assay with MOLT-4; over 100 µM with HCT-15; 77.4 µM (inactive) in the assay with A498.

As to `CC(N)C(=O)OCN1C(=O)C2C3C=CC(C2C1=O)C1C2C(=O)N(COC(=O)C(C)N)C(=O)C2C31` (stereo unspecified), the GI50 was 22.8 µM (inactive) in the assay on UACC-62; > 100 µM (inactive) in the assay with HOP-62; 53.1 µM (inactive) with SK-OV-3; 21.3 µM (inactive) in the assay with SF-268; 21.9 µM (inactive) in the assay on SK-MEL-28; 20.6 µM (inactive) in the assay on SK-MEL-2. Also, the GI50 in the assay on SN12C is 25.6 µM (inactive); with UO-31 it was 56.4 µM (inactive); in the assay on OVCAR-5, 47.8 µM (inactive); with NCI-H460, 17.6 µM (inactive); in the assay with A549, 32.9 µM (inactive); in the assay on MOLT-4, 21.5 µM (inactive). Moreover, the figures for the GI50 with HCT-15 and with HOP-92 were 19.9 µM and 57.5 µM (inactive), respectively.

Take `O=c1[nH]ccc(CNC23CC4CC(CC(C4)C2)C3)c1O`: the GI50 is > 100 µM (inactive) with UACC-62; > 100 µM (inactive) in the assay with HOP-62; > 100 µM (inactive) in the assay on SK-OV-3; > 100 µM (inactive) in the assay on SK-MEL-2; 45.8 µM (inactive) in the assay on SN12C; 88.3 µM (inactive) in the assay on UO-31. Further, the GI50 in the assay on OVCAR-5 is > 100 µM (inactive); in the assay with NCI-H460 it was 79.3 µM (inactive); in the assay on A549 it was > 100 µM (inactive); in the assay with NCI-H522, 24.8 µM (inactive); in the assay with MOLT-4, 55.7 µM (inactive); in the assay on HCT-15 it was 41.8 µM. Moreover, the GI50 in the assay on A498 is > 100 µM (inactive).

With `O=C1CCC2(c3ccccc3)Nc3ccccc3N12` (stereo unspecified), the GI50 with UACC-62, in the assay with HOP-62, with SF-268, in the assay with SK-MEL-28, with SK-MEL-2 and with SN12C was > 100 µM (inactive) throughout. The GI50 in the assay with UO-31, with OVCAR-5, with NCI-H460, with A549, with NCI-H522 and in the assay on MOLT-4 was > 100 µM (inactive) throughout. Also, the GI50 is over 100 µM in the assay with HCT-15, > 100 µM (inactive) in the assay on A498 and > 100 µM (inactive) in the assay on HOP-92.
